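Growth conditions: 96-well plates. Treatment: test compound, 48 hours, 5 concentrations. Analysis: linear interpolation between bracketing concentrations; unreached endpoints set to highest concentration. Here, GI50 denotes the concentration required for 50% inhibition of growth.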 The source made the active and inactive calls. No stated cut-off is given here; in the data, active = GI50 up to about 1.1 µM and inactive = higher. Starred links: 1 amine or outer side, 2 acyl side, 3 side chain; linkers in the order of their positions; H or OH if unused. Non-standard residues stand in square brackets, D forms with d. Residues, ends and D or L forms follow the SMILES beside them. *: point of attachment. X34 = CC(=O)N(C)SCC(N[*:1])C(=O)[*:2]; Cbz = O=C(OCc1ccccc1)*; Bn = c1ccc(C*)cc1; For = O=C*

The values below come from ChEMBL document CHEMBL1201862, “PubChem BioAssay data set” (2004).

Common to all, as to assay: DTP human tumour cell line panel, 48 h
In assay [1] the test system is U-251.
The subject of assay [2] is UACC-257.
In assay [3] the test system is OVCAR-4.
The test system of assay [4] is NCI-H23.
In assay [5] the test system is ACHN.
Assay [6] has as its system SK-MEL-5.
For assay [7], the system named is MDA-MB-435.
For assay [8], the system named is Malme-3M.
The test system of assay [9] is HCT-15.
Assay [10] concerns MDA-N.
Assay [11] concerns TK-10.
For assay [12], the system named is SK-MEL-2.
Assay [13] has as its system 786-0.
The subject of assay [14] is SK-OV-3.
Assay [15] relates to OVCAR-5.
The test system of assay [16] is MCF7.
For assay [17], the system named is Hs-578T.
The test system of assay [18] is IGROV-1.
The subject of assay [19] is OVCAR-3.
In assay [20] the test system is COLO 205.

In general, GI50 refers to the concentration giving 50% growth inhibition. Consider `O=C(O)CC1NCc2cc3ccccc3nc21` (stereo not given), for which the GI50 in assay [1], in [2], in [3], in assay [4], in assay [5] and in assay [6] was > 100 µM (inactive) throughout. The GI50 in [7] was > 100 µM (inactive); in [8] it was > 100 µM (inactive); in assay [9], above 100 µM; in assay [10], > 100 µM (inactive); in assay [11], > 100 µM (inactive); in [12], > 100 µM (inactive). Besides, the GI50 in assay [13], in [14], in assay [15], in assay [16], in assay [17] and in assay [18] was > 100 µM (inactive) each time. The GI50 in assay [19] and in [20] was > 100 µM (inactive) each time.

In the case of `CC(=O)N(C)SCC(NC(=O)C(Cc1ccccc1)NC(=O)OCc1ccccc1)C(=O)NC(Cc1ccccc1)C(=O)NC(Cc1cn(C=O)c2ccccc12)C(=O)NC(CCCCNC(=O)OCc1ccccc1)C(=O)NC(C(=O)NC(CSN(C)C(C)=O)C(=O)NC(C(N)=O)C(C)OCc1ccccc1)C(C)OCc1ccccc1` (stereo not given) (Cbz-F[X34]FW(For)K(Cbz)T(Bn)[X34]T(Bn)-NH2; configuration not given here), the GI50 is 32.2 µM (inactive) in assay [1]; > 100 µM (inactive) in [2]; 54.2 µM (inactive) in [3]; 32 µM (inactive) in assay [4]; > 100 µM (inactive) in [5]; > 100 µM (inactive) in assay [6]. Moreover, the GI50 was > 100 µM (inactive) in assay [7]; 40.4 µM (inactive) in [8]; above 100 µM in assay [9]; > 100 µM (inactive) in [10]; 20.6 µM (inactive) in assay [11]; 3.77 µM (inactive) in assay [12]. Further, the GI50 in [13] was 24.1 µM (inactive); in assay [14] it was 33.2 µM (inactive); in assay [15], > 100 µM (inactive); in assay [16], > 100 µM (inactive); in assay [17], 8.63 µM (inactive); in [18] it was 68.9 µM (inactive). The GI50 in [19] and in [20] was > 100 µM (inactive) each time.

In the case of `CNc1c2c(c3nc4ccccc4c4c3c1N=C4)NCCC2=O` [PLAKINIDINE A], the GI50 in [1] is 5.87 µM (inactive); in [2], > 10 µM (inactive); in [3] it was 7.83 µM (inactive); in [4] it was 7.13 µM (inactive); in assay [5] it was 2.07 µM (inactive); in [6] it was 6.55 µM (inactive). In addition, the GI50 was 5.79 µM (inactive) in assay [7]; 4.65 µM (inactive) in assay [8]; 6.4 µM in [9]; 7.35 µM (inactive) in assay [10]; 8.51 µM (inactive) in [11]; > 10 µM (inactive) in assay [12]. Moreover, the GI50 in assay [13] is 2.41 µM (inactive); in [14] it was 8.04 µM (inactive); in assay [15] it was 5.83 µM (inactive); in assay [16] it was 2.66 µM (inactive); in [17], > 10 µM (inactive); in assay [18], 4.42 µM (inactive). The GI50 is 8.57 µM (inactive) in [19] and 2.82 µM (inactive) in assay [20].
